Measured values reported in patent US12527757B2, “Nanoemulsion of 18BETA-glycyrrhetinic acid” (ATSO CORPORATE AFFAIRS, S.A. DE C.V., priority 2019, dated 2026).
Where two headings read alike, the source gives them in different places.

Legend:
[1] = cited from earlier work
HeLa cells [2] = assay: Alkaline comet assay (single cell electrophoresis), HeLa; format: cell-based; conditions: HeLa cancer cells
Experimental: (§1) This difference in drug performance can be explained by the difference in their mechanisms of action. […] The comet assay is an experiment that allows to see if the drug has a cytotoxic effect related to DNA fragmentation of the cells. This difference is visualized by the size of the “tails” of the “comets”, which is the fragmented DNA from the cells under study.
(§2) An analysis with a Wilcoxon test was performed to verify whether the means in the percentage of DNA in the comet tails of the different cell lines differ.
(§3) FIG. 2 depicts representative tail-DNA percentage data. (A) Microphotographs of the alkaline comet assay showing representative images of the CC cell lines and their negative control with their 18β and GA treatments of HeLa (HPV 18 cervical cancer) and HaCaT (HPV negative immortalized keratinocyte) (B) Comet assay data plot of Tail-DNA percentage **P<0.43 for HaCaT and P<2^−16. Larger comets for 18β treatment are observed.

Rotavirus = conditions: infected cultures; cited from earlier work
SiHa cells = assay: Cell survival inhibition assay, SiHa; format: cell-based; conditions: SiHa (HPV-16), 24 hours, 10-100 μM
Experimental: (§4) In this sense, a cell survival inhibition assay of different cell lines was carried out when exposed for hours 24 to one of the two drugs from FIG. 1. In this experiment, four cell lines were tested: HeLa, which are cell lines representative of cancer and HPV-18 infection, SiHa which are cells representative of cervical cancer with HPV-16 infection, C-33A which are cells representative of HPV-negative cervical carcinoma, and HaCaT, which are cancer and infection negative cells. The experiment consisted of exposing cells of the different cell lines to different concentrations of both drugs for 24 hours (10-100 μM) going in steps of 10 μM each.

[3] = cited from earlier work; remark: listed apart in the source
HaCaT cells = assay: Alkaline comet assay (single cell electrophoresis), HaCaT; format: cell-based
Experimental: as §1, §2, §3

C-33A cells = assay: Cell survival inhibition assay, C-33A; format: cell-based; conditions: C-33A (HPV-negative cervical carcinoma), 24 hours, 10-100 μM
Experimental: as §4

HeLa cells [4] = assay: Cell survival inhibition assay, HeLa; format: cell-based; conditions: HeLa (HPV-18), 24 hours, 10-100 μM
Experimental: as §4

Hepatitis C virus (HCV) = conditions: by preventing the release of infectious viral particles; cited from earlier work

DNA fragmentation (comet tails) (HaCaT cells; HaCaT healthy cells) | SMILES | solubility in water [1] | DNA fragmentation (comet tails) (HeLa cells [2]) | interference with Rotavirus replication (Rotavirus) | inhibition of cell survival (SiHa cells) | log P [3] | DNA fragmentation (comet tails) (HaCaT cells) | inhibition of cell survival (C-33A cells) | inhibition of cell survival (HeLa cells [4]) | reduction of Hepatitis C virus (HCV) titers (Hepatitis C virus (HCV))
 | CC1(C)[C@@H](O)CC[C@]2(C)[C@H]3C(=O)C=C4[C@@H]5C[C@@](C)(C(=O)O)CC[C@]5(C)CC[C@@]4(C)[C@]3(C)CC[C@@H]12 [Example 18β-GA, 18β-glycyrrhetinic acid] | insoluble in water | considerable DNA fragmentation | up to 99% | greater effect than GA | 6.574 | much less fragmentation | greater effect than GA | greater effect than GA | 
do not present this fragmentation | CC1(C)[C@@H](O[C@H]2O[C@H](C(=O)O)[C@@H](O)[C@H](O)[C@H]2O[C@@H]2O[C@H](C(=O)O)[C@@H](O)[C@H](O)[C@H]2O)CC[C@]2(C)[C@H]3C(=O)C=C4[C@@H]5C[C@@](C)(C(=O)O)CC[C@]5(C)CC[C@@]4(C)[C@]3(C)CC[C@@H]12 [GA, Glycyrrhizic acid] |  | do not present this fragmentation |  | no effect |  |  | minor effect | minor effect | 50%
